The subject of the experiment is OCI-LY19 human B-cell lymphoma. Put plainly: In vivo drug efficacy, OCI-LY19 human B-cell lymphoma mouse subcutaneous xenograft tumor model. The method, then: Cell culture: Human B-cell lymphoma OCI-LY19 cells were maintained as a monolayer in MEM-α medium containing 10% fetal bovine serum in a constant temperature incubator at 37° C. with 5% CO2. Tumor cells were subcultured twice a week. Cells in exponential growth phase were harvested and counted for inoculation.
Experimental animals: BALB/c nude mice, 6-8 weeks old, 19-22 g, purchased from Beijing Vital River Laboratory Animal Technology Co., Ltd.
For Vehicle, positive control (AZD6738, CAS number: 1352226-88-0) and compound 2, a total of 6 experimental groups were set up, as shown in Table 5 below:
Experimental method: The OCI-LY19 cell line (3.0×10^6 cells/mouse) was inoculated subcutaneously on the right back of the experimental mouse, and the inoculation volume of each mouse was 0.1 mL, and the growth of tumors was observed regularly, and until the tumor grew to about 100 mm^3, the mice were randomly divided into groups according to the tumor size and body weight, and administered according to the administration plan shown in Table 5, and the mouse body weight and tumor size were measured twice a week during the whole experiment.
tumor volume (mm^3)=0.5×(tumor long diameter×tumor short diameter^2). Tumor size calculation formula: […]
(In xenograft studies the graft and the host belong to different species.)

The mark [1] stands for this setting: Group 3, 5 mg/kg p.o. once a day.
Where [2] appears, read: Group 4, 10 mg/kg p.o. once a day.
The mark [3] stands for this setting: Group 5, 10 mg/kg p.o. once a day × 4 days on, 3 days off.
Setting [4] is: Group 6, 20 mg/kg p.o. once a day × 4 days on, 3 days off.

One molecule from patent US20240025899A1, “TRIHETEROCYCLIC DERIVATIVE, AND PHARMACEUTICAL COMPOSITION AND APPLICATION THEREOF” (SHANGHAI DE NOVO PHARMATECH CO., LTD., priority 2020, published 2024) can be followed below.

Where a name gives a salt, the structure may show the parent alone.

Turning to `C[C@@H]1COCCN1c1nc2c(cnn2-c2cc[nH]n2)c2c1CCN2S(C)(=O)=O` [Compound 2, (R)-3-methyl-4-(1-(methylsulfonyl)-6-(1H-pyrazol-3-yl)-1,2,3,6-tetrahydropyrazolo[3,4-b]pyrrolo[2,3-d]pyridin-4-yl)morpholine trifluoroacetate], under setting [1], the “T/C (%)” value was determined as 17.9%; the “TGI (%)” value stood at 86.0%; the “Tumor volume (10 days, mm^3)” value is listed as 109.41 ± 4.35 mm^3; the “Tumor volume (24 days, mm^3)” value is given as 424.51 ± 77.26 mm^3. In addition, under setting [2], the “T/C (%)” value worked out at 8.5%; the “TGI (%)” value is recorded as 95.9%; the “Tumor volume (10 days, mm^3)” value is on record as 109.00 ± 4.19 mm^3; the “Tumor volume (24 days, mm^3)” value was found to be 202.09 ± 44.85 mm^3. Under setting [3], the “T/C (%)” value is 15.9%; the “TGI (%)” value is 88.2%; the “Tumor volume (10 days, mm^3)” value is on record as 109.20 ± 3.96 mm^3; the “Tumor volume (24 days, mm^3)” value worked out at 375.56 ± 92.96 mm^3. Further, under setting [4], the “T/C (%)” value is 7.9%; the “TGI (%)” value amounted to 96.5%; the “Tumor volume (10 days, mm^3)” value came to 109.24 ± 4.22 mm^3; the “Tumor volume (24 days, mm^3)” value amounted to 187.91 ± 27.01 mm^3.
